Measurements: patent US20230025600A1, “TREATMENT OF CANCERS WITH ANTIBODY DRUG CONJUGATES (ADC) THAT BIND TO 191P4D12 PROTEINS” (AGENSYS, INC., priority 2019, published 2023)
Square brackets hold non-standard residues; d marks the D form. Peptide text beside a SMILES is read from it. * marks the point of attachment. Dolaproine = CO[C@@H]([C@@H]1CCCN1)[C@@H](C)C(=O)O; Dil = CC[C@H](C)[C@H](NC)[C@@H](CC(=O)O)OC; X1 = C[C@@H](N*)[C@@H](O)c1ccccc1; NMeV = CN[C@H](C(=O)O)C(C)C

Tests used:
[1] = tested on: acute myeloid leukemia (AML) at relapse; conditions: administered alone; cited from earlier work
[2] = tested on: bacterial reverse mutation; assay: Bacterial reverse mutation assay (Ames test); assay type: cell-based
Description: (§1) MMAE was genotoxic in the rat bone marrow micronucleus study through an aneugenic mechanism. This effect is consistent with the pharmacological effect of MMAE as a microtubule-disrupting agent. MMAE was not mutagenic in the bacterial reverse mutation assay (Ames test) or the L5178Y mouse lymphoma forward mutation assay.

P-glycoprotein (P-gp) = P-glycoprotein (P-gp) (Homo sapiens, UniProt P08183); assay: Transporter systems in vitro; assay type: in vitro ADME
Sequence of P-glycoprotein (P-gp) (P08183 whole entry): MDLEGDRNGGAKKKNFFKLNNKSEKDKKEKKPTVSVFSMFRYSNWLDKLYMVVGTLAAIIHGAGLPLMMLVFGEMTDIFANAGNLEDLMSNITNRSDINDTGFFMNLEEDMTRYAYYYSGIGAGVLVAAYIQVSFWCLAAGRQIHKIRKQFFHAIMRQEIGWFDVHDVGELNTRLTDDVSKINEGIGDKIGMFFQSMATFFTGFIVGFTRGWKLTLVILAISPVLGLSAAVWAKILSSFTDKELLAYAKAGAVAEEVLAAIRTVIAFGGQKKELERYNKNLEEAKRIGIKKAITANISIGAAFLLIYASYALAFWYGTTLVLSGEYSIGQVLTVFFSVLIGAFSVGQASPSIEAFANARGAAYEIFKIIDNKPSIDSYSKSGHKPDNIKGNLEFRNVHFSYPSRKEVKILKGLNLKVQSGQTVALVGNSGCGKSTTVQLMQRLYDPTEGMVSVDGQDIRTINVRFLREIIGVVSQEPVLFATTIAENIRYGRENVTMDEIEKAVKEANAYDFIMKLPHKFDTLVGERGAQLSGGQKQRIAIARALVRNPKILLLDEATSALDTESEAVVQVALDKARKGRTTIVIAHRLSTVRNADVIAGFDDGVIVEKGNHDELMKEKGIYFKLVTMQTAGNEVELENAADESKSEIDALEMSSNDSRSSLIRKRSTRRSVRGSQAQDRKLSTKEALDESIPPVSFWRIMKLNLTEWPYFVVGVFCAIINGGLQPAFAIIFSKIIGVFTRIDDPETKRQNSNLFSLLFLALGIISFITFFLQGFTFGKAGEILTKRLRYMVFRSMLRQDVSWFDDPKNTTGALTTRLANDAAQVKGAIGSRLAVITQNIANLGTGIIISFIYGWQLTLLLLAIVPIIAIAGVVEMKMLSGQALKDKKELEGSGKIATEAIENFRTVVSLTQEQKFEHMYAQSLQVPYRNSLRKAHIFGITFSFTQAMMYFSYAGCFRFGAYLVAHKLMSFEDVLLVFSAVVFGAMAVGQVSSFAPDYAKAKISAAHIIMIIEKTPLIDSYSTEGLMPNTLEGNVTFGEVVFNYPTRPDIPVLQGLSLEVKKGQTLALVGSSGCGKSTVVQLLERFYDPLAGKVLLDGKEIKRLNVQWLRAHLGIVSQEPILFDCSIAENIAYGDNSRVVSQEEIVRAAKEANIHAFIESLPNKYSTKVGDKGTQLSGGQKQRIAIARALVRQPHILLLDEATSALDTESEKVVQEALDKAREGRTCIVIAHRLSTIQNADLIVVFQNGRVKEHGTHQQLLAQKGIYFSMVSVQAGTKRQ

L5178Y mouse lymphoma = L5178Y mouse lymphoma forward mutation assay; assay type: cell-based
Description: as §1

CYP3A4 = target: T1, CYP3A4 (Homo sapiens, UniProt P08684); assay: Metabolism in vitro; assay type: in vitro ADME
T1 construct: from tissue; host or cells: human subjects in vivo (endogenous enzyme)
T1 sequence (P08684 whole entry): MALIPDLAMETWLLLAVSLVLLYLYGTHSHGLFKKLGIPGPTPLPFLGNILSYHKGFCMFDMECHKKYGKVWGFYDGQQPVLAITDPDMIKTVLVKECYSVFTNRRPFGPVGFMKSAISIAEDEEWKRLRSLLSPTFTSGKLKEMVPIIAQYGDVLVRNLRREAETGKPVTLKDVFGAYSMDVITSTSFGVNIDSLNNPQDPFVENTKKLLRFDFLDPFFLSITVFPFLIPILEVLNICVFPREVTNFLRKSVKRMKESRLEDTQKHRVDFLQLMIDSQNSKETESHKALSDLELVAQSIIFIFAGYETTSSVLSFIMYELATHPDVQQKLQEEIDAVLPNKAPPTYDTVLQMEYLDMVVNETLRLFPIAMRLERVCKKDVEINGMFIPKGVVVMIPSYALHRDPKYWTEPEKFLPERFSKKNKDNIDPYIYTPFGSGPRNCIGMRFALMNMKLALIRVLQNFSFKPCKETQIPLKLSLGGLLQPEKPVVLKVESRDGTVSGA
Description: Enfortumab vedotin-ejfv catabolism has not been studied in humans; however, it is expected to undergo catabolism to small peptides, amino acids, unconjugated MMAE, and unconjugated MMAE-related catabolites.

[3] = Population pharmacokinetic analysis in patients; assay type: in vivo, human
Description: Population pharmacokinetic analysis included data from 369 patients based on three Phase 1 studies and one Phase 2 study. Enfortumab vedotin-ejfv pharmacokinetics were characterized after single and multiple doses in patients with locally advanced or metastatic urothelial carcinoma and other solid tumors.
Steady-state concentrations of ADC and MMAE were reached after 1 treatment cycle.

rat bone marrow = assay: Rat bone marrow micronucleus study; assay type: in vivo; conditions: aneugenic mechanism
Description: as §1

[4] = tested on: human breast cancer xenograft BT-483; assay: Efficacy in subcutaneous established human breast cancer xenograft BT-483 in SCID mice; assay type: in vivo; conditions: 5 mg/kg every four days for four doses, intravenous bolus; tumors about 100 mm^3 at start; compared to control ADC
Protocol: In this experiment, human breast cancer BT-483 cells were used to generate stock xenografts, which were maintained by serial passages in SCID mice. Stock tumors were harvested sterilely and minced into 1 mm^3 pieces. Six (6) pieces were implanted into the flank of individual SCID mice. Tumors were allowed to grow untreated until they reached an approximate volume of 100 mm^3. The Ha22-2(2,4)6.1vcMMAE and the control ADC were dosed at 5 mg/kg every four (4) days for four (4) doses by intravenous bolus injection. The amount of ADC administered was based on the individual body weight of each animal obtained immediately prior to dosing. Tumor growth was monitored using caliper measurements every 3 to 4 days. Tumor volume was calculated as Width^2×Length/2, where width is the smallest dimension and length is the largest dimension.

[5] = tested on: human lung cancer xenograft AG-L4; assay: Efficacy in subcutaneous established human lung cancer xenograft AG-L4 in SCID mice; assay type: in vivo; conditions: 10 mg/kg every seven days for two doses, intravenous bolus; tumors about 200 mm^3 at start; compared to control ADC
Protocol: In another experiment, patient-derived lung cancer xenograft AG-L4 was maintained by serial passages in SCID mice. Stock tumors were harvested sterilely and minced into 1 mm^3 pieces. Six (6) pieces were implanted into the flank of individual SCID mice. Tumors were allowed to grow untreated until they reached an approximate volume of 200 mm^3. The Ha22-2(2,4)6.1vcMMAE and the control ADC were dosed at 10 mg/kg every seven (7) days for two doses by intravenous bolus injection. The amount of ADC administered was based on the individual body weight of each animal obtained immediately prior to dosing. Tumor growth was monitored using caliper measurements every 3 to 4 days. Tumor volume was calculated as Width^2×Length/2, where width is the smallest dimension and length is the largest dimension.

[6] = unconjugated MMAE, after first treatment cycle of 1.25 mg/kg, Days 1, 8 and 15

Molecule: CT-011: anti-PD-1 antibody, a humanized antibody
- response in acute myeloid leukemia (AML) at relapse [1]: failed to show response

Molecule: CC[C@H](C)[C@@H]([C@@H](CC(=O)N1CCC[C@H]1[C@H](OC)[C@@H](C)C(=O)N[C@H](C)[C@@H](O)c1ccccc1)OC)N(C)C(=O)[C@@H](NC(=O)[C@@H](NC)C(C)C)C(C)C [MMAE, monomethyl auristatin E] (H-[NMeV]V[Dil][Dolaproine]-X1)
- mutagenicity in Ames test [2]: not mutagenic
- P-gp inhibition (P-glycoprotein (P-gp)): not an inhibitor
- P-gp substrate (P-glycoprotein (P-gp)): substrate
- mutagenicity in L5178Y mouse lymphoma forward mutation assay (L5178Y mouse lymphoma): not mutagenic
- metabolism in vitro (CYP3A4): primarily metabolized by CYP3A4
- exposure (AUC) in mild, moderate or severe renal impairment ([3]; 1.25 mg/kg, compared to normal renal function): No significant differences
- AUC increase in mild hepatic impairment ([3]; n=31, compared to normal hepatic function, population pharmacokinetics analysis): 48%
- accumulation following repeat administration ([3]; patients): Minimal accumulation
- elimination of MMAE ([3]; patients): limited by its rate of release from enfortumab vedotin-ejfv
- mean clearance (CL) ([3]; patients): 2.7 L/h
- steady-state concentrations reached after ([3]; patients): 1 treatment cycle
- time of peak MMAE concentrations after enfortumab vedotin-ejfv dosing ([3]; patients): approximately 2 days
- elimination half-life ([3]; patients, multi-exponential declines): 57.6 h
- AUC0-28 d, Mean (±SD) [3, 6]: 69 (42) ng · d/mL
- Cmax, Mean (±SD) [3, 6]: 4.8 (2.7) ng/mL
- Ctrough, 0-28 d (pre-dose concentration on day 28), Mean (±SD) [3, 6]: 0.57 (0.58) ng/mL
- genotoxicity in rat bone marrow micronucleus study (rat bone marrow): genotoxic

Molecule: Ha22-2(2,4)6.1-vcMMAE: 191P4D12 ADC: antibody Ha22-2(2,4)6.1 (murine hybridoma cell line-derived) conjugated to MMAE via vc linker
- growth of BT-483 breast tumor xenografts [4]: significantly inhibited
- growth of AG-L4 lung cancer xenografts [5]: significantly inhibited
